In brackets after ≈: the same amount, converted by molar mass.
What was measured:
A2780 = test: Cytotoxicity against human A2780 cells after 72 hrs by MTT assay; type: functional, cell-based; conditions: A2780, 72 h
A549 = test: Cytotoxicity against human A549 cells after 72 hrs by MTT assay; type: functional, cell-based; conditions: A549, 72 h
[1] = Inhibition of GTP-[…] tubulin polymerization

Row | SMILES | IC50 (A2780) | IC50 (A549) | ED50 [1]
1 | CC(=O)O[C@H]1C(=O)[C@@]2(C)[C@H]([C@H](OC(=O)c3ccccc3)[C@]3(O)C[C@H](OC(=O)[C@H](O)[C@@H](NC(=O)c4ccccc4)c4ccccc4)C(C)=C1C3(C)C)[C@]1(OC(C)=O)CO[C@@H]1C[C@@H]2O [PACLITAXEL] | 0.13 ng/mL (≈ 0.152 nM) | 0.29 ng/mL (≈ 0.34 nM) | 0.52 µM
2 | CC(=O)O[C@@]12CO[C@@H]1C[C@H](O)[C@]1(C)[C@@H]2[C@H](OC(=O)c2ccccc2)[C@@H]2C[C@H](OC(=O)[C@H](O)[C@@H](NC(=O)c3ccccc3)c3ccccc3)C(C)=C([C@H]3OC(C)(C)O[C@@H]31)C2(C)C | 1.54 ng/mL (≈ 1.84 nM) | 2.87 ng/mL (≈ 3.42 nM) | 5.2 µM
3 | CC(=O)O[C@@]12CO[C@@H]1C[C@H](O)[C@]1(C)[C@@H]2[C@H](OC(=O)c2ccccc2)[C@@H]2C[C@H](OC(=O)[C@H](O)[C@@H](NC(=O)c3ccccc3)c3ccccc3)C(C)=C([C@@H](O)[C@@H]1O)C2(C)C | 0.11 ng/mL (≈ 0.138 nM) | 0.18 ng/mL (≈ 0.226 nM) | 1.9 µM

Reference: ChEMBL document CHEMBL1136845, “Synthesis, biological activity and tubulin binding poses of 1-deoxy-9-(R)-dihydrotaxane analogs” (Bioorg Med Chem Lett, 2009)
